Data taken from patent US20230017045A1, “PYRIDINE AND PYRIMIDINE CARBOXYLATE HERBICIDES AND METHODS OF USE THEREOF” (Dow AgroSciences LLC, priority 2017, published 2023).

Each compound was assayed on test plant species (assay: Post-emergent herbicidal activity test (greenhouse, foliar spray, visual growth reduction)). Details: post-emergence, 336 h, ECHCG: barnyardgrass (Echinochloa crus-galli), 140 g ai/ha, 14 days after application, read-out: Visual Growth Reduction (%) 14 Days After Application, ECHCG.
Type: in vivo
Method in brief: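 Greenhouse plants at first–second true leaf stage sprayed overhead at 187 L/ha with compound in acetone/water/isopropanol/DMSO/crop oil/X-77 carrier; controls received solvent blank. Injury rated visually after 14 d on a 0–100% scale versus untreated and control plants, converted to growth reduction.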
`COC(=O)c1nc(-c2ccc3ccsc3c2F)ccc1Cl` [F260, Methyl 3-chloro-6-(7-fluorobenzo[b]thiophen-6-yl) picolinate] gave a pest or weed control at 140 g/ha of 0 to 29%. For `COC(=O)c1nc(-c2cc(F)c(C(F)(F)F)cc2OC)c(F)cc1Cl` [F359, Methyl 3-chloro-5-fluoro-6-(5-fluoro-2-methoxy-4-(trifluoromethyl)phenyl)picolinate], the pest or weed control at 140 g/ha was 95 to 100%. In the case of `O=C(O)c1nc(-c2cc(Br)c(C(F)(F)F)cc2Cl)ccc1Cl` [F349, 6-(5-Bromo-2-chloro-4-(trifluoromethyl)phenyl)-3-chloropicolinic acid], the pest or weed control at 140 g/ha is reported as 0 to 29%.

Same assay, conditions: post-emergence, 336 h, IPOHE: ivy-leaf morning glory (Ipomoea hederacea), 140 g ai/ha, 14 days after application, read-out: Visual Growth Reduction (%) 14 Days After Application, IPOHE
`COC(=O)c1nc(-c2ccc3ccsc3c2F)ccc1Cl` [F260, Methyl 3-chloro-6-(7-fluorobenzo[b]thiophen-6-yl) picolinate] was tested, and the pest or weed control at 140 g/ha was 0 to 29%. Compound `COC(=O)c1nc(-c2cc(F)c(C(F)(F)F)cc2OC)c(F)cc1Cl` [F359, Methyl 3-chloro-5-fluoro-6-(5-fluoro-2-methoxy-4-(trifluoromethyl)phenyl)picolinate] has a pest or weed control at 140 g/ha of 95 to 100%. With `O=C(O)c1nc(-c2cc(Br)c(C(F)(F)F)cc2Cl)ccc1Cl` [F349, 6-(5-Bromo-2-chloro-4-(trifluoromethyl)phenyl)-3-chloropicolinic acid] the pest or weed control at 140 g/ha was 95 to 100%.

Same assay, conditions: post-emergence, 336 h, KCHSC: kochia (Bassia scoparia), 140 g ai/ha, 14 days after application, read-out: Visual Growth Reduction (%) 14 Days After Application, KCHSC
With `COC(=O)c1nc(-c2ccc3ccsc3c2F)ccc1Cl` [F260, Methyl 3-chloro-6-(7-fluorobenzo[b]thiophen-6-yl) picolinate] the pest or weed control at 140 g/ha was 0 to 29%. For `COC(=O)c1nc(-c2cc(F)c(C(F)(F)F)cc2OC)c(F)cc1Cl` [F359, Methyl 3-chloro-5-fluoro-6-(5-fluoro-2-methoxy-4-(trifluoromethyl)phenyl)picolinate], the pest or weed control at 140 g/ha was 85 to 94%. For `O=C(O)c1nc(-c2cc(Br)c(C(F)(F)F)cc2Cl)ccc1Cl` [F349, 6-(5-Bromo-2-chloro-4-(trifluoromethyl)phenyl)-3-chloropicolinic acid], the pest or weed control at 140 g/ha was 85 to 94%.

Same assay, conditions: post-emergence, 336 h, ORYSA: rice (Oryza sativa), 140 g ai/ha, 14 days after application, read-out: Visual Growth Reduction (%) 14 Days After Application, ORYSA
For `COC(=O)c1nc(-c2ccc3ccsc3c2F)ccc1Cl` [F260, Methyl 3-chloro-6-(7-fluorobenzo[b]thiophen-6-yl) picolinate], the pest or weed control at 140 g/ha was 0 to 29%. `COC(=O)c1nc(-c2cc(F)c(C(F)(F)F)cc2OC)c(F)cc1Cl` [F359, Methyl 3-chloro-5-fluoro-6-(5-fluoro-2-methoxy-4-(trifluoromethyl)phenyl)picolinate] showed a pest or weed control at 140 g/ha of 0 to 29%. `O=C(O)c1nc(-c2cc(Br)c(C(F)(F)F)cc2Cl)ccc1Cl` [F349, 6-(5-Bromo-2-chloro-4-(trifluoromethyl)phenyl)-3-chloropicolinic acid] was tested, and the pest or weed control at 140 g/ha was 0 to 29%.

Same assay, conditions: post-emergence, 336 h, SETFA: giant foxtail (Setaria faberi), 140 g ai/ha, 14 days after application, read-out: Visual Growth Reduction (%) 14 Days After Application, SETFA
Work on `COC(=O)c1nc(-c2ccc3ccsc3c2F)ccc1Cl` [F260, Methyl 3-chloro-6-(7-fluorobenzo[b]thiophen-6-yl) picolinate] yielded a pest or weed control at 140 g/ha of 0 to 29%. `COC(=O)c1nc(-c2cc(F)c(C(F)(F)F)cc2OC)c(F)cc1Cl` [F359, Methyl 3-chloro-5-fluoro-6-(5-fluoro-2-methoxy-4-(trifluoromethyl)phenyl)picolinate] gave a pest or weed control at 140 g/ha of 95 to 100%. `O=C(O)c1nc(-c2cc(Br)c(C(F)(F)F)cc2Cl)ccc1Cl` [F349, 6-(5-Bromo-2-chloro-4-(trifluoromethyl)phenyl)-3-chloropicolinic acid] showed a pest or weed control at 140 g/ha of 75 to 84%.

Same assay, conditions: post-emergence, 336 h, SORVU: grain sorghum (Sorghum vulgare), 140 g ai/ha, 14 days after application, read-out: Visual Growth Reduction (%) 14 Days After Application, SORVU
With `COC(=O)c1nc(-c2ccc3ccsc3c2F)ccc1Cl` [F260, Methyl 3-chloro-6-(7-fluorobenzo[b]thiophen-6-yl) picolinate] the pest or weed control at 140 g/ha was 0 to 29%. `COC(=O)c1nc(-c2cc(F)c(C(F)(F)F)cc2OC)c(F)cc1Cl` [F359, Methyl 3-chloro-5-fluoro-6-(5-fluoro-2-methoxy-4-(trifluoromethyl)phenyl)picolinate] gave a pest or weed control at 140 g/ha of 85 to 94%. In the case of `O=C(O)c1nc(-c2cc(Br)c(C(F)(F)F)cc2Cl)ccc1Cl` [F349, 6-(5-Bromo-2-chloro-4-(trifluoromethyl)phenyl)-3-chloropicolinic acid], the pest or weed control at 140 g/ha is reported as 85 to 94%.

Same assay, conditions: post-emergence, 336 h, STEME: common chickweed (Stellaria media), 140 g ai/ha, 14 days after application, read-out: Visual Growth Reduction (%) 14 Days After Application, STEME
`COC(=O)c1nc(-c2ccc3ccsc3c2F)ccc1Cl` [F260, Methyl 3-chloro-6-(7-fluorobenzo[b]thiophen-6-yl) picolinate] gave a pest or weed control at 140 g/ha of 0 to 29%. `COC(=O)c1nc(-c2cc(F)c(C(F)(F)F)cc2OC)c(F)cc1Cl` [F359, Methyl 3-chloro-5-fluoro-6-(5-fluoro-2-methoxy-4-(trifluoromethyl)phenyl)picolinate] showed a pest or weed control at 140 g/ha of 0 to 29%. Compound `O=C(O)c1nc(-c2cc(Br)c(C(F)(F)F)cc2Cl)ccc1Cl` [F349, 6-(5-Bromo-2-chloro-4-(trifluoromethyl)phenyl)-3-chloropicolinic acid] has a pest or weed control at 140 g/ha of 0 to 29%.

Same assay, conditions: post-emergence, 336 h, TRZAS: wheat, spring (Triticum aestivum), 140 g ai/ha, 14 days after application, read-out: Visual Growth Reduction (%) 14 Days After Application, TRZAS
For `COC(=O)c1nc(-c2ccc3ccsc3c2F)ccc1Cl` [F260, Methyl 3-chloro-6-(7-fluorobenzo[b]thiophen-6-yl) picolinate], the pest or weed control at 140 g/ha was 0 to 29%. Work on `COC(=O)c1nc(-c2cc(F)c(C(F)(F)F)cc2OC)c(F)cc1Cl` [F359, Methyl 3-chloro-5-fluoro-6-(5-fluoro-2-methoxy-4-(trifluoromethyl)phenyl)picolinate] yielded a pest or weed control at 140 g/ha of 60 to 74%. `O=C(O)c1nc(-c2cc(Br)c(C(F)(F)F)cc2Cl)ccc1Cl` [F349, 6-(5-Bromo-2-chloro-4-(trifluoromethyl)phenyl)-3-chloropicolinic acid] was tested, and the pest or weed control at 140 g/ha was 85 to 94%.

Same assay, conditions: post-emergence, 336 h, blackgrass (Alopecurus myosuroides), 14 Days After Application, 140 g ai/ha, read-out: Visual Growth Reduction (%) ALOMY
Work on `COC(=O)c1nc(-c2ccc3ccsc3c2F)ccc1Cl` [F260, Methyl 3-chloro-6-(7-fluorobenzo[b]thiophen-6-yl) picolinate] yielded a pest or weed control at 140 g/ha of 0 to 29%. Work on `COC(=O)c1nc(-c2cc(F)c(C(F)(F)F)cc2OC)c(F)cc1Cl` [F359, Methyl 3-chloro-5-fluoro-6-(5-fluoro-2-methoxy-4-(trifluoromethyl)phenyl)picolinate] yielded a pest or weed control at 140 g/ha of 30 to 44%. Compound `O=C(O)c1nc(-c2cc(Br)c(C(F)(F)F)cc2Cl)ccc1Cl` [F349, 6-(5-Bromo-2-chloro-4-(trifluoromethyl)phenyl)-3-chloropicolinic acid] has a pest or weed control at 140 g/ha of 60 to 74%.

Same assay, conditions: post-emergence, 336 h, canada thistle (Cirsium arvense), 14 Days After Application, 140 g ai/ha, read-out: Visual Growth Reduction (%) CIRAR
Work on `COC(=O)c1nc(-c2ccc3ccsc3c2F)ccc1Cl` [F260, Methyl 3-chloro-6-(7-fluorobenzo[b]thiophen-6-yl) picolinate] yielded a pest or weed control at 140 g/ha of 0 to 29%. `COC(=O)c1nc(-c2cc(F)c(C(F)(F)F)cc2OC)c(F)cc1Cl` [F359, Methyl 3-chloro-5-fluoro-6-(5-fluoro-2-methoxy-4-(trifluoromethyl)phenyl)picolinate] gave a pest or weed control at 140 g/ha of 75 to 84%.

Same assay, conditions: post-emergence, 336 h, crabgrass (Digitaria sanguinalis), 14 Days After Application, 140 g ai/ha, read-out: Visual Growth Reduction (%) DIGSA
`COC(=O)c1nc(-c2ccc3ccsc3c2F)ccc1Cl` [F260, Methyl 3-chloro-6-(7-fluorobenzo[b]thiophen-6-yl) picolinate] showed a pest or weed control at 140 g/ha of 0 to 29%. In the case of `COC(=O)c1nc(-c2cc(F)c(C(F)(F)F)cc2OC)c(F)cc1Cl` [F359, Methyl 3-chloro-5-fluoro-6-(5-fluoro-2-methoxy-4-(trifluoromethyl)phenyl)picolinate], the pest or weed control at 140 g/ha is reported as 30 to 44%. `O=C(O)c1nc(-c2cc(Br)c(C(F)(F)F)cc2Cl)ccc1Cl` [F349, 6-(5-Bromo-2-chloro-4-(trifluoromethyl)phenyl)-3-chloropicolinic acid] was tested, and the pest or weed control at 140 g/ha was 75 to 84%.

Same assay, conditions: post-emergence, 336 h, lambsquarters (Chenopodium album), 14 Days After Application, 140 g ai/ha, read-out: Visual Growth Reduction (%) CHEAL
Work on `COC(=O)c1nc(-c2ccc3ccsc3c2F)ccc1Cl` [F260, Methyl 3-chloro-6-(7-fluorobenzo[b]thiophen-6-yl) picolinate] yielded a pest or weed control at 140 g/ha of 0 to 29%. In the case of `COC(=O)c1nc(-c2cc(F)c(C(F)(F)F)cc2OC)c(F)cc1Cl` [F359, Methyl 3-chloro-5-fluoro-6-(5-fluoro-2-methoxy-4-(trifluoromethyl)phenyl)picolinate], the pest or weed control at 140 g/ha is reported as 95 to 100%. With `O=C(O)c1nc(-c2cc(Br)c(C(F)(F)F)cc2Cl)ccc1Cl` [F349, 6-(5-Bromo-2-chloro-4-(trifluoromethyl)phenyl)-3-chloropicolinic acid] the pest or weed control at 140 g/ha was 95 to 100%.

Same assay, conditions: post-emergence, 336 h, redroot pigweed (Amaranthus retroflexus), 14 Days After Application, 140 g ai/ha, read-out: Visual Growth Reduction (%) AMARE
`COC(=O)c1nc(-c2ccc3ccsc3c2F)ccc1Cl` [F260, Methyl 3-chloro-6-(7-fluorobenzo[b]thiophen-6-yl) picolinate] was tested, and the pest or weed control at 140 g/ha was 0 to 29%. For `COC(=O)c1nc(-c2cc(F)c(C(F)(F)F)cc2OC)c(F)cc1Cl` [F359, Methyl 3-chloro-5-fluoro-6-(5-fluoro-2-methoxy-4-(trifluoromethyl)phenyl)picolinate], the pest or weed control at 140 g/ha was 95 to 100%. Compound `O=C(O)c1nc(-c2cc(Br)c(C(F)(F)F)cc2Cl)ccc1Cl` [F349, 6-(5-Bromo-2-chloro-4-(trifluoromethyl)phenyl)-3-chloropicolinic acid] has a pest or weed control at 140 g/ha of 60 to 74%.

Same assay, conditions: post-emergence, 336 h, wild oat (Avena fatua), 14 Days After Application, 140 g ai/ha, read-out: Visual Growth Reduction (%) AVEFA
Compound `COC(=O)c1nc(-c2ccc3ccsc3c2F)ccc1Cl` [F260, Methyl 3-chloro-6-(7-fluorobenzo[b]thiophen-6-yl) picolinate] has a pest or weed control at 140 g/ha of 0 to 29%. In the case of `COC(=O)c1nc(-c2cc(F)c(C(F)(F)F)cc2OC)c(F)cc1Cl` [F359, Methyl 3-chloro-5-fluoro-6-(5-fluoro-2-methoxy-4-(trifluoromethyl)phenyl)picolinate], the pest or weed control at 140 g/ha is reported as 75 to 84%. `O=C(O)c1nc(-c2cc(Br)c(C(F)(F)F)cc2Cl)ccc1Cl` [F349, 6-(5-Bromo-2-chloro-4-(trifluoromethyl)phenyl)-3-chloropicolinic acid] gave a pest or weed control at 140 g/ha of 60 to 74%.

Same assay, conditions: post-emergence, 336 h, yellow nutsedge (Cyperus esculentus), 14 Days After Application, 140 g ai/ha, read-out: Visual Growth Reduction (%) CYPES
`COC(=O)c1nc(-c2ccc3ccsc3c2F)ccc1Cl` [F260, Methyl 3-chloro-6-(7-fluorobenzo[b]thiophen-6-yl) picolinate] gave a pest or weed control at 140 g/ha of 0 to 29%. `COC(=O)c1nc(-c2cc(F)c(C(F)(F)F)cc2OC)c(F)cc1Cl` [F359, Methyl 3-chloro-5-fluoro-6-(5-fluoro-2-methoxy-4-(trifluoromethyl)phenyl)picolinate] was tested, and the pest or weed control at 140 g/ha was 0 to 29%. With `O=C(O)c1nc(-c2cc(Br)c(C(F)(F)F)cc2Cl)ccc1Cl` [F349, 6-(5-Bromo-2-chloro-4-(trifluoromethyl)phenyl)-3-chloropicolinic acid] the pest or weed control at 140 g/ha was 0 to 29%.
